Earlier results, collected in article PMC6253886, “Prodrugs of Thyrotropin-Releasing Hormone and Related Peptides as Central Nervous System Agents” (Molecules, 2009).
Where two headings read alike, the source gives them in different places. Marks after values point to notes of the source that are not given here. [ ]: non-standard residue; d: D form. The star is where a group is joined. O(cholesteryl) = CC(C)CCC[C@@H](C)[C@H]1CC[C@H]2[C@@H]3CC=C4C[C@@H](O*)CC[C@]4(C)[C@H]3CC[C@]12C; pGlu = O=C1CC[C@@H](C(=O)O)N1; Dht = not defined here

Legend:
[1] = tested on: mice; settings: for % Decrease in Sleeping Time / Sleeping time (min): pentobarbital 60 mg/kg i.p. 10 min later; for % Decrease in Sleeping Time: percent of vehicle sleeping time (54.9 ±3.8 min); for Analeptic Effect: % Decrease in Sleeping Time / Sleeping time (min): 10 µmol/kg i.v.; for Analeptic Effect: % Decrease in Sleeping Time: percent decrease vs saline vehicle counted as 100%; for Sleeping time (min): saline vehicle 80±2 min
Method: Table 1 Barbiturate-induced sleeping times in mice after the administration of [Leu^2]TRH and its produgs having various spacers (S). Sleeping time decrease is expressed as percent of sleeping time for vehicle administration only (54.9 ±3.8 min). […] Values are expressed as percent decrease compared to those of saline vehicle that was counted as 100%. *Statistically significant difference from saline control (ANOVA followed by Dunnett’s, P < 0.05, n=6–16). Repri | column: Analeptic Effect:% Decrease in Sleeping Time || (+ 5 further places)

[2] = tested on: mice; settings: 3 µmol/kg i.v., percent decrease vs saline vehicle counted as 100%, n=6–16
Excerpt: Table 4 Comparison of analeptic (equimolar dose of 10 µmol/kg body weight, i.v.) and antidepressant (equimolar dose of 3 of µmol/kg body weight, i.v) effects of test compounds in mice. Values are expressed as percent decrease compared to those of saline vehicle that was counted as 100%. *Statistically significant difference from saline control (ANOVA followed by Dunnett’s, P < 0.05, n=6–16). Repri | column: Porsolt Swim Test:% Decrease in Immobility

[3] = IAMC
Excerpt: We utilized again the robust ... || (+ 2 further places)

[4] = tested on: triiodothyronine (T3) levels; settings: review statement
Excerpt: (§1) Many pharmacological activities of this peptide are similar to those of TRH [54]; however, the beneficial effects after treatment with [Glu^2]TRH are reportedly more robust or prolonged. These advantages are probably due to the increased resistance of this peptide to enzymes principally responsible for the rapid degradation of TRH in vivo [40].

[5] = tested on: TRH receptors; settings: review statement
Excerpt: as §1

[6] = target: TRH receptor (Rattus norvegicus) (UniProt Q01717); assay: radioligand competition
Sequence of TRH receptor (Rattus norvegicus) (Q01717 whole entry): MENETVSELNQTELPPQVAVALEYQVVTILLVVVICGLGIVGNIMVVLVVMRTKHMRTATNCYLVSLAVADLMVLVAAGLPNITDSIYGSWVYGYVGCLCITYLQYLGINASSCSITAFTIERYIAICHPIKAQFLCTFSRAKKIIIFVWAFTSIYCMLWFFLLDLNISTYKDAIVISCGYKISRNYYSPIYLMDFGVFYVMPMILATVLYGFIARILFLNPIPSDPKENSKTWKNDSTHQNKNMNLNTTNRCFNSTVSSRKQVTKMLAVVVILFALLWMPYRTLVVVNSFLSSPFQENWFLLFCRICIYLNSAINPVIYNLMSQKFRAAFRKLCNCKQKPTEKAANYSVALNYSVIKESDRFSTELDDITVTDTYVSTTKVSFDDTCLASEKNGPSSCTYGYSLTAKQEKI

[7] = remark: listed apart in the source
Method: Studies in rodents and humans have shown that this tripeptide has a very short (6–10 min) half-life in plasma. The rapid degradation in this medium is mainly due to the action of pyroglutamyl aminopeptidases. Additionally, this highly hydrophilic molecule (logP = –2.46) also lacks its own active BBB transport system; thus, high doses of the peptide unavoidably manifesting a profound and undesired hormonal (endocrine) effect would be required for CNS application. Therefore, dissociation of endocrine and CNS actions of TRH is a crucial issue in designing TRH analogues a ... || A centrally selective natural analogue of TRH is [Leu^2]TRH (pGlu-Leu-Pro-NH2, Figure 1), in which the central His of TRH is replaced with Leu. […] Therefore, we selected this tripeptide for substantiating our brain-targeting prodrug approach. […] The amino- and carbox ...

[8] = remark: listed apart in the source
Excerpt: A centrally selective natural analogue of TRH is [Leu^2]TRH (pGlu-Leu-Pro-NH2, Figure 1), in which the central His of TRH is replaced with Leu. […] Therefore, we selected this tripeptide for substantiating our brain-targeting prodrug approach. […] The amino- and carbox ...

[9] = rodents and humans
Method: Studies in rodents and humans have shown that this tripeptide has a very short (6–10 min) half-life in plasma. The rapid degradation in this medium is mainly due to the action of pyroglutamyl aminopeptidases. Additionally, this highly hydrophilic molecule (logP = –2.46) also lacks its own active BBB transport system; thus, high doses of the peptide unavoidably manifesting a profound and undesired hormonal (endocrine) effect would be required for CNS application. Therefore, dissociation of endocrine and CNS actions of TRH is a crucial issue in designing TRH analogues a ...

[10] = mouse plasma
Excerpt: (§2) Replacement of [His^2] practically aboli ...

[11] = tested on: receptor labeled by [3H][3-Me-His2]TRH; settings: [3H][3-Me-His2]TRH-labeled receptor, rat brain pellets
Excerpt: as §2

[12] = k’IAM = (tR-t0)/t0, t0 = retention time of [Glu^2]TRH as dead-volume marker

Sequence of TRH (P01150 whole entry, looked up): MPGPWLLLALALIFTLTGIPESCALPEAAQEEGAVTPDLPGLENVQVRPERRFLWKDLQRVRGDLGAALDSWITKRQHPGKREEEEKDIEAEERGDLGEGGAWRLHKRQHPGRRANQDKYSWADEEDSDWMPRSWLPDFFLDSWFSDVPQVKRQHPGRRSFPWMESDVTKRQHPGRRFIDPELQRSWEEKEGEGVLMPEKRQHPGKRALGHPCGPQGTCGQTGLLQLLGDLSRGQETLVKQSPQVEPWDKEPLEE

Prodrug, S= Ala: [Leu^2]TRH brain-targeting prodrug: Dht attached through spacer Ala to Gln-Leu-Pro-Gly, carboxy-terminus esterified with cholesterol (Dht-AQLPG-{O(cholesteryl)}; reading uncertain)
% Decrease in Sleeping Time ([1]; 15 µmol/kg i.v.): 30 ± 3* %

Trig-Glu(OHex)-Pro-NH2 [hexyl ester of the designed [Trig^1] analogue of [Glu^2]TRH]
Porsolt Swim Test: % Decrease in Immobility [2]: 2±1% | Analeptic Effect: % Decrease in Sleeping Time ([1]; n=6–16): 1±3% | pharmacological (analeptic) response, in words ([1]; i.v., ionic compound without reduction of Trig to Dht): no pharmacological response was observed

[pGlu]-Glu-Pro-NH2 [[Glu^2]TRH, TRH-like endogenous tripeptide, reference compound]
k’IAM [3, 12]: 0 | Sleeping time (min) [1]: 65±3* min | effect on triiodothyronine (T3) levels, in words [4]: does not elevate triiodothyronine (T3) levels | binding to TRH receptors, in words [5]: practically does not bind to TRH receptors

Prodrug, S= Ala-Ala: [Leu^2]TRH brain-targeting prodrug: Dht attached through spacer Ala-Ala to Gln-Leu-Pro-Gly, carboxy-terminus esterified with cholesterol (Dht-AAQLPG-{O(cholesteryl)}; reading uncertain)
% Decrease in Sleeping Time ([1]; 15 µmol/kg i.v.): 32 ± 4* %

Dht-Glu(OHex)-Pro-NH2
k’IAM ([3]; [Trig^1] analogue prodrugs): 28.6 | Porsolt Swim Test: % Decrease in Immobility [2]: 43±3* % | Analeptic Effect: % Decrease in Sleeping Time ([1]; n=6–16): 18 ± 2% | Analeptic Effect: % Decrease in Sleeping Time ([1]; n=6–16, listed as Dht-Glu(OHex)–Pro-NH2): 18±2* % | t1/2 of hydrolysis of the ester (mouse): 27 min

TRH (from UniProt P01150)
Ki [6]: 42 nM

Dht-Glu(OH)-Pro-NH2 [neutral prodrug without the ester function on the side-chain of the central residue]
improvement of affinity to membrane lipids compared to the ionic analogue [3]: three- to five-fold | k’IAM ([3]; [Trig^1] analogue prodrugs): 0.4

pGlu-Glu(OHex)-Pro-NH2 [R=Hex]
k’IAM [3, 12]: 16.0 | Porsolt Swim Test: % Decrease in Immobility [2]: 44±2* % | Sleeping time (min) [1]: 50±2** min | Analeptic Effect: % Decrease in Sleeping Time ([1]; n=6–16): 37±3* % | ED50 (analeptic effect, dose-response) ([1]; i.v.): around 2 µmol/kg body weight | t1/2 (mouse): ~22 min

[pGlu]-Leu-Pro-NH2 [[Leu^2]TRH, reference compound]
% Decrease in Sleeping Time ([1]; 15 µmol/kg i.v.): 17 ± 7% | logP [7]: –1.67 | increase in typical TRH-associated analeptic effect compared to TRH [8]: approximately 2.5 fold

Prodrug, S= Pro-Ala: [Leu^2]TRH brain-targeting prodrug: Dht attached through spacer Pro-Ala to Gln-Leu-Pro-Gly, carboxy-terminus esterified with cholesterol (Dht-PAQLPG-{O(cholesteryl)}; reading uncertain)
% Decrease in Sleeping Time ([1]; 15 µmol/kg i.v.): 56 ± 4** %

Prodrug, S= Pro: [Leu^2]TRH brain-targeting prodrug: Dht attached through spacer Pro to Gln-Leu-Pro-Gly, carboxy-terminus esterified with cholesterol (Dht-PQLPG-{O(cholesteryl)}; reading uncertain)
% Decrease in Sleeping Time ([1]; 15 µmol/kg i.v.): 47 ± 6** %

pGlu-His-Pro-NH2 [TRH, thyrotropin-releasing hormone, native tripeptide]
k’IAM ([3]; TRH, pyridinium analogues and their prodrugs): 0.51 | half-life in plasma [9]: 6 to 10 min | duration of the analeptic action, in words ([1]; 15 µmol/kg i.v., pentobarbital 60 mg/kg i.p. given 60 min post drug vs 10 min, Figure 6): loss of over half of CNS-activity | half-life (mouse brain homogenate (20%, w/v)): 16 min | half-life [10]: 11 min | binding affinity [11]: 42 nM | logP ([7]; logarithm of the n-octanol/water partition coefficient, review, no reference given for the value): –2.46

Prodrug, S= Pro-Pro: [Leu^2]TRH brain-targeting prodrug: Dht attached through spacer Pro-Pro to Gln-Leu-Pro-Gly, carboxy-terminus esterified with cholesterol (Dht-PPQLPG-{O(cholesteryl)}; reading uncertain)
% Decrease in Sleeping Time ([1]; 15 µmol/kg i.v.): 55 ± 7** %
